Earlier results, collected in US9884842B2, “Combretastatin analogs” (The Board of Trustees of the University of Arkansas, priority 2013, dated 2018).

How the values were obtained:
Settings in all cases: background; cited from earlier work
tubulin [1] = system: tubulin
[2] = system: multidrug resistant (MDR) cancer cell lines
tubulin [3] = system: tubulin; remark: listed apart in the source

In the case of `COc1ccc(/C=C\c2cc(OC)c(OC)c(OC)c2)cc1O` [combretastatin A-4], the “inhibition of binding of radiolabeled colchicines to tubulin” value (tubulin [1]) is listed as “competitively inhibit the binding of radiolabeled colchicines to tubulin”, the “activity against multidrug resistant (MDR) cancer cell lines” value [2] is listed as “active” and the “inhibition of tubulin polymerization” value (tubulin [3]) is listed as “inhibit tubulin polymerization”.
